Reference: US20220280594A1, “APPLICATION OF POLYPEPTIDE OR DERIVATIVE THEREOF” (CHENGDU HUITAI BIOMEDICINE CO., LTD., priority 2019, published 2022)
Ends that are not written are not given here. PEG = not defined here

Assays:
[1] = test system: human pancreatic cancer cells (PANC-1) subcutaneous xenograft; assay: pancreatic cancer subcutaneous xenograft animal model, intratumoral injection; type: in vivo, mice (BALB/c-nu/nu); conditions: PANC-1 xenograft, intratumoral 5 mg/kg once every other day, 25 days
Description: (§1) Experimental animals: 4-6 weeks old female immunodeficiency mice (BALB/c-nu/nu, Beijing Vital River Laboratory Animal Technology Co., Ltd.).
(§2) Subcutaneous xenograft animal model. The number of cells inoculated subcutaneously vin mice was about 2×10^6/200 μL. When the volume of the subcutaneous tumor was greater than 100 mm^3, the mice were randomly divided into groups and subjected to treatment. When the mass volume of the tumors in model control group reached 2000 mm^3 or the animal dies, the treatment ended. The animals were dissected, the tumors were taken out, and the weight and volume of the tumors were measured. During the period of the entire experiment, the mice were observed and the body weight was measured every other day.
The method used in the efficacy test on the pancreatic cancer subcutaneous xenograft animal model was as described in Example 5. The pancreatic cancer cells were human pancreatic cancer cells (PANC-1), and the route of administration was intratumoral injection. The experimental groups were model control group and polypeptide or derivative thereof treatment groups (N1-N12). The drug dosage of the N1-N12 treatment group was 5mg/kg, once every other day, and the treatment time was 25 days.

[2] = test system: fibronectin; assay: fibronectin expression in SK-HEP-1 cells (ELISA); type: cell-based, human; conditions: SK-HEP-1, 10 μM, 24 hours, control group 1.62 ± 0.09
Description: (§3) SK-HEP-1 cells were cultured in vitro, cells in the logarithmic growth phase were collected, and the cells were seeded evenly in a 24-well plate at a density of 1-3×10^5 cells/well. The cells were cultured in a cell incubator for 4-5 h. PBS was added to the control group. PBS containing polypeptide or derivative thereof (N1-N12) was added to the treatment group. The final concentration of the polypeptide or derivative thereof in the well was 10 μM. After incubating for 24 hours, the cells were collected and the total protein was extracted. ELISA was used to detect the content of fibronectin in total protein.

[3] = test system: vimentin; assay: vimentin expression in SK-HEP-1 cells (ELISA); type: cell-based, human; conditions: SK-HEP-1, 10 μM, 24 hours, control group 1.2 ± 0.01
Description: as §3
The experimental method for testing the inhibition on the expression of vimentin in human liver adenocarcinoma cells (SK-HEP-1) by the polypeptide or derivative thereof (N1-N12) was as described in Example 19.

[4] = test system: N-cadherin; assay: N-cadherin expression in SK-HEP-1 cells (ELISA); type: cell-based, human; conditions: SK-HEP-1, 10 μM, 24 hours, control group 1.12 ± 0.03
Description: as §3
The experimental method for testing the inhibition on the expression of N-cadherin in human liver adenocarcinoma cells (SK-HEP-1) by the polypeptide or derivative thereof (N1-N12) was as described in Example 19.

[5] = test system: human lung cancer cells (A549) subcutaneous xenograft; assay: lung cancer subcutaneous xenograft animal model, intratumoral injection; type: in vivo, mice (BALB/c-nu/nu); conditions: intratumoral 5 mg/kg once every other day
Description: as §1, §2
The method used for the drug efficacy test in the animal model of the subcutaneous xenograft derived from lung cancer cells was as described in Example 5. The tumor cells were human lung cancer cells (A549), and the route of administration was intratumoral injection. There were two groups: the model control group and the polypeptide or its derivative treatment group (N1-N12). The drug dosage of the treatment group was 5 mg/kg, once every other day and the treatment time was 10 days.
The procedure of the efficacy test in this example, route and dosage of administration were the same as in Example 9. The peptides used in the experiment were N13-N32. The treatment time was 20 days.

[6] = effect on coagulation function in mice (ACT); type: in vivo, C57BL/6J mice; conditions: 200 mg/kg tail vein once a day until Day 24, blood on Day 25; control group 73.50 ± 7.15
Description: C57BL/6J mice were used as experimental subjects (purchased from Chengdu Dashuo Experimental Animal Co., Ltd., male, weighing 16-17 g). Sterile saline or peptide drugs were injected via the tail vein once a day until Day 24. The mice in the control group were injected with sterile saline, and the mice in the administration groups (N1-N12) were injected with polypeptide drugs (200 mg/kg). There were three experimental animals in each group. On Day 25, the eyeballs were removed and blood ([…]) was taken. The coagulation function of the mice was detected by the Abbott i-STAT blood gas analyzer with the ACT test card.

[7] = 20 days, control 1700.16 ± 305.72

In the case of “N1: polypeptide with the amino acid sequence set forth in SEQ ID NO: 1 (YRVRFLAKENVTQDAEDN)”, the “Weight of tumor (g) (mean ± SD)” value ([1]; control 1.2 ± 0.11) is reported as 0.52 ± 0.13 g, the “Volume of tumor (mm^3) (mean ± SD)” value ([1]; control 1431.72 ± 174.33) is reported as 704.1 ± 152.43 mm^3 and the “Relative protein level (mean ± SD, P), fibronectin” value [2] is reported as 1.3 ± 0.02,**. The “Relative protein level (mean ± SD, P), vimentin” value [3] was 0.97 ± 0.03, ***, the “Relative protein level (mean ± SD, P), N-cadherin” value [4] was 0.83 ± 0.04,*** and the “Weight of tumor (g) (mean ± SD)” value ([5]; 10 days, control 1.45 ± 0.15) was 0.87 ± 0.08 g. For the same substance, the “Volume of tumor (mm^3) (mean ± SD)” value ([5]; 10 days, control 1269.32 ± 115.39) was 851.64 ± 67.38 mm^3 and the “Activated clotting time (s) (mean ± SD)” value [6] was 73.64 ± 9.31 s.
For “N13: SEQ ID NO: 1 with deletion of positions 15-18 and positions 1-5 (LAKENVTQD)”, the “Weight of tumor (g) (mean ± SD)” value ([5]; 20 days, control 1.92 ± 0.13) was 1.09 ± 0.09 g and the “Volume of tumor (mm^3) (mean ± SD)” value [5, 7] was 986.7 ± 261.02 mm^3.
For “N14: SEQ ID NO: 1 with deletion of positions 1-5 and addition of one amino acid at the carboxyl terminal (LAKENVTQDAEDNC)”, the “Weight of tumor (g) (mean ± SD)” value ([5]; 20 days, control 1.92 ± 0.13) was 1.09 ± 0.29 g and the “Volume of tumor (mm^3) (mean ± SD)” value [5, 7] was 913.68 ± 219.62 mm^3.
For “N15: SEQ ID NO: 1 with substitution N18R and addition of one amino acid to the carboxyl terminal (YRVRFLAKENVTQDAEDRC)”, the “Weight of tumor (g) (mean ± SD)” value ([5]; 20 days, control 1.92 ± 0.13) was 0.63 ± 0.13 g and the “Volume of tumor (mm^3) (mean ± SD)” value [5, 7] was 793.32 ± 173.3 mm^3.
With “N16: SEQ ID NO: 1 with substitution A7R and addition of one amino acid at the carboxyl terminus (YRVRFLRKENVTQDAEDNC)” the “Weight of tumor (g) (mean ± SD)” value ([5]; 20 days, control 1.92 ± 0.13) was 0.83 ± 0.27 g and the “Volume of tumor (mm^3) (mean ± SD)” value [5, 7] was 897.27 ± 176.16 mm^3.
In the case of “N17: SEQ ID NO: 1 with addition of two amino acids to the carboxyl terminal (YRVRFLAKENVTQDAEDNCT)”, the “Weight of tumor (g) (mean ± SD)” value ([5]; 20 days, control 1.92 ± 0.13) is reported as 0.76 ± 0.26 g and the “Volume of tumor (mm^3) (mean ± SD)” value [5, 7] is reported as 893.18 ± 234.75 mm^3.
For “N18: SEQ ID NO: 1 with addition of one amino acid at the amino terminal and one at the carboxyl terminal (FYRVRFLAKENVTQDAEDNC)”, the “Weight of tumor (g) (mean ± SD)” value ([5]; 20 days, control 1.92 ± 0.13) was 0.75 ± 0.26 g and the “Volume of tumor (mm^3) (mean ± SD)” value [5, 7] was 969.37 ± 243.04 mm^3.
For “N19: SEQ ID NO: 1 with deletion of positions 1-5 and 15-18 and addition of two amino acids at the carboxyl terminal (LAKENVTQDRC)”, the “Weight of tumor (g) (mean ± SD)” value ([5]; 20 days, control 1.92 ± 0.13) was 0.81 ± 0.29 g and the “Volume of tumor (mm^3) (mean ± SD)” value [5, 7] was 963.18 ± 185.31 mm^3.
In the case of “N20: SEQ ID NO: 1 with addition of one amino acid at the amino terminal and deletion of position 18 (RYRVRFLAKENVTQDAED)”, the “Weight of tumor (g) (mean ± SD)” value ([5]; 20 days, control 1.92 ± 0.13) is reported as 0.89 ± 0.22 g and the “Volume of tumor (mm^3) (mean ± SD)” value [5, 7] is reported as 1037.56 ± 256.6 mm^3.
In the case of “N21: SEQ ID NO: 1 with deletion of positions 1-5 and 15-18 and addition of one amino acid at the amino terminal (SLAKENVTQD)”, the “Weight of tumor (g) (mean ± SD)” value ([5]; 20 days, control 1.92 ± 0.13) is reported as 0.9 ± 0.28 g and the “Volume of tumor (mm^3) (mean ± SD)” value [5, 7] is reported as 967.35 ± 247.89 mm^3.
For “N22: SEQ ID NO: 1 with substitution A7R, deletion of three amino acids at the amino terminal and of positions 15-18 (RFLRKENVTQD)”, the “Weight of tumor (g) (mean ± SD)” value ([5]; 20 days, control 1.92 ± 0.13) was 0.83 ± 0.33 g and the “Volume of tumor (mm^3) (mean ± SD)” value [5, 7] was 835.73 ± 184.67 mm^3.
With “N23: SEQ ID NO: 1 with substitution A7R, deletion of position 11 and of positions 15-18 (YRVRFLRKENTQDAED)” the “Weight of tumor (g) (mean ± SD)” value ([5]; 20 days, control 1.92 ± 0.13) was 0.83 ± 0.29 g and the “Volume of tumor (mm^3) (mean ± SD)” value [5, 7] was 838.73 ± 218 mm^3.
With “N24: SEQ ID NO: 1 with substitution A7R, deletion of positions 1-2 and of position 18 (VRFLRKENVTQDAED)” the “Weight of tumor (g) (mean ± SD)” value ([5]; 20 days, control 1.92 ± 0.13) was 0.83 ± 0.29 g and the “Volume of tumor (mm^3) (mean ± SD)” value [5, 7] was 908.37 ± 256.24 mm^3.
In the case of “N25: SEQ ID NO: 1 with substitution N18R and addition of two amino acids at the carboxyl terminal (YRVRFLAKENVTQDAEDRCT)”, the “Weight of tumor (g) (mean ± SD)” value ([5]; 20 days, control 1.92 ± 0.13) is reported as 0.71 ± 0.18 g and the “Volume of tumor (mm^3) (mean ± SD)” value [5, 7] is reported as 958.87 ± 351.9 mm^3.
With “N26: SEQ ID NO: 1 with substitution A15R, addition of one amino acid at the amino terminal and one at the carboxyl terminal (FYRVRFLAKENVTQDREDNC)” the “Weight of tumor (g) (mean ± SD)” value ([5]; 20 days, control 1.92 ± 0.13) was 0.8 ± 0.22 g and the “Volume of tumor (mm^3) (mean ± SD)” value [5, 7] was 1053.55 ± 175.83 mm^3.
For “N27: SEQ ID NO: 1 with addition of one amino acid at the carboxyl terminal and PEG modification at the carboxyl terminal (YRVRFLAKENVTQDAEDNC-{PEG}; reading uncertain)”, the “Weight of tumor (g) (mean ± SD)” value ([5]; 20 days, control 1.92 ± 0.13) was 0.95 ± 0.22 g and the “Volume of tumor (mm^3) (mean ± SD)” value [5, 7] was 1059.51 ± 161.22 mm^3.
With “N28: SEQ ID NO: 1 with deletion of positions 1-2 and 18 and PEG modification at the amino terminal ({PEG}-VRFLAKENVTQDAED; reading uncertain)” the “Weight of tumor (g) (mean ± SD)” value ([5]; 20 days, control 1.92 ± 0.13) was 0.81 ± 0.24 g and the “Volume of tumor (mm^3) (mean ± SD)” value [5, 7] was 1055.02 ± 222.45 mm^3.
In the case of “N29: SEQ ID NO: 1 with deletion of positions 1-5 and 15-18 and PEG modification at the amino terminal ({PEG}-LAKENVTQD; reading uncertain)”, the “Weight of tumor (g) (mean ± SD)” value ([5]; 20 days, control 1.92 ± 0.13) is reported as 0.82 ± 0.22 g and the “Volume of tumor (mm^3) (mean ± SD)” value [5, 7] is reported as 949 ± 227.4 mm^3.
For “N30: SEQ ID NO: 1 with deletion of positions 1-5 and 15-18 and PEG modification at the carboxyl terminal (LAKENVTQD-{PEG}; reading uncertain)”, the “Weight of tumor (g) (mean ± SD)” value ([5]; 20 days, control 1.92 ± 0.13) was 0.9 ± 0.22 g and the “Volume of tumor (mm^3) (mean ± SD)” value [5, 7] was 913.9 ± 204.07 mm^3.
In the case of “N31: SEQ ID NO: 1 with deletion of positions 3, 4, 11 and 15-18 and PEG modification at the carboxyl terminal (YRFLAKENTQD-{PEG}; reading uncertain)”, the “Weight of tumor (g) (mean ± SD)” value ([5]; 20 days, control 1.92 ± 0.13) is reported as 0.71 ± 0.16 g and the “Volume of tumor (mm^3) (mean ± SD)” value [5, 7] is reported as 900.88 ± 255.61 mm^3.
In the case of “N32: SEQ ID NO: 1 with deletion of positions 1-3, addition of one amino acid and PEG modification at the carboxyl terminal (RFLAKENVTQDAEDNC-{PEG}; reading uncertain)”, the “Weight of tumor (g) (mean ± SD)” value ([5]; 20 days, control 1.92 ± 0.13) is reported as 0.88 ± 0.25 g and the “Volume of tumor (mm^3) (mean ± SD)” value [5, 7] is reported as 984.03 ± 184.86 mm^3.
